# “And” between values parts separate entries of the source, which are not always exact repeats. Equal entries are not always repeated.
# Key:
# Donor 3 GMA T-Cell Lines = experiment: ATP proliferation assay (CellTiter Glo), Donor 3 GMA T-cell lines, incl. reactivity to non-canonical GA peptides; assay type: cell-based, human
# Donor 4 COP T-Cell Lines = experiment: ATP proliferation assay (CellTiter Glo), Donor 4 COP T-cell lines, incl. reactivity to non-canonical GA peptides; assay type: cell-based, human; conditions: for Non-Canonical Peptide Non-Reactivity: proliferation <2 times no antigen control; for Proliferation (luminescent ATP assay), Mean: T-cell line 205-1F4, Day 71, autologous B-LCL
substance,measurement,setting,value
poly (Glu-Ala-Tyr; 6:3:1) [GAT 631],"Proliferation (luminescent ATP assay), Mean","Donor 3 GMA T-Cell Lines; T-cell line 165-E9G, 30 μg/mL antigen, Day 50 of culturing, No Antigen Value 1742",1382 RLU
same,"Proliferation (luminescent ATP assay), Mean","Donor 3 GMA T-Cell Lines; T-cell line 165-E9G, 10 μpg/mL antigen, Day 50 of culturing, No Antigen Value 1742",1454 RLU
same,"Proliferation (luminescent ATP assay), Mean","Donor 3 GMA T-Cell Lines; T-cell line 165-F5G, 1.25 μg/mL antigen, autologous B-LCL",118 RLU
same,"Proliferation (luminescent ATP assay), Mean","Donor 3 GMA T-Cell Lines; T-cell line 165-F5G, 2.5 μg/mL antigen, autologous B-LCL",160 RLU
same,"Proliferation (luminescent ATP assay), Mean","Donor 3 GMA T-Cell Lines; T-cell line 165-F5G, 5 μg/mL antigen, autologous B-LCL",106 RLU
same,"Proliferation (luminescent ATP assay), Mean","Donor 3 GMA T-Cell Lines; T-cell line 165-F5G, 10 μg/mL antigen, autologous B-LCL",130 RLU
same,"Proliferation (luminescent ATP assay), Mean","Donor 3 GMA T-Cell Lines; T-cell line 165-F10G, 1 μg/mL antigen, Day 50 of culturing, No Antigen Value 3752",3755 RLU
same,"Proliferation (luminescent ATP assay), Mean","Donor 3 GMA T-Cell Lines; T-cell line 165-F10G, 1.25 μg/mL antigen, autologous B-LCL",948 RLU
same,"Proliferation (luminescent ATP assay), Mean","Donor 3 GMA T-Cell Lines; T-cell line 165-F10G, 2.5 μg/mL antigen, autologous B-LCL",1080 RLU
same,"Proliferation (luminescent ATP assay), Mean","Donor 3 GMA T-Cell Lines; T-cell line 165-F10G, 3 μg/mL antigen, Day 50 of culturing, No Antigen Value 3752",3543 RLU
same,"Proliferation (luminescent ATP assay), Mean","Donor 3 GMA T-Cell Lines; T-cell line 165-F10G, 5 μg/mL antigen, autologous B-LCL",1024 RLU
same,"Proliferation (luminescent ATP assay), Mean","Donor 3 GMA T-Cell Lines; T-cell line 165-F10G, 10 μg/mL antigen, Day 50 of culturing, No Antigen Value 3752",3702 RLU
same,"Proliferation (luminescent ATP assay), Mean","Donor 3 GMA T-Cell Lines; T-cell line 165-F10G, 10 μg/mL antigen, autologous B-LCL",944 RLU
same,"Proliferation (luminescent ATP assay), Mean","Donor 3 GMA T-Cell Lines; T-cell line 165-F10G, 30 μg/mL antigen, Day 50 of culturing, No Antigen Value 3752",3794 RLU
same,"Proliferation (luminescent ATP assay), Mean","Donor 3 GMA T-Cell Lines; T-cell line 165-H11G, 1 μg/mL antigen, Day 50 of culturing, No Antigen Value 1485",2413 RLU
same,"Proliferation (luminescent ATP assay), Mean","Donor 3 GMA T-Cell Lines; T-cell line 165-H11G, 1.25 μg/mL antigen, autologous B-LCL",43 RLU
same,"Proliferation (luminescent ATP assay), Mean","Donor 3 GMA T-Cell Lines; T-cell line 165-H11G, 2.5 μg/mL antigen, autologous B-LCL",290 RLU
same,"Proliferation (luminescent ATP assay), Mean","Donor 3 GMA T-Cell Lines; T-cell line 165-H11G, 3 μg/mL antigen, Day 50 of culturing, No Antigen Value 1485",2969 RLU
same,"Proliferation (luminescent ATP assay), Mean","Donor 3 GMA T-Cell Lines; T-cell line 165-H11G, 5 μg/mL antigen, autologous B-LCL",297 RLU
same,"Proliferation (luminescent ATP assay), Mean","Donor 3 GMA T-Cell Lines; T-cell line 165-H11G, 10 μg/mL antigen, Day 50 of culturing, No Antigen Value 1485",2995 RLU
same,"Proliferation (luminescent ATP assay), Mean","Donor 3 GMA T-Cell Lines; T-cell line 165-H11G, 10 μg/mL antigen, autologous B-LCL",305 RLU
same,"Proliferation (luminescent ATP assay), Mean","Donor 3 GMA T-Cell Lines; T-cell line 165-H11G, 30 μg/mL antigen, Day 50 of culturing, No Antigen Value 1485",3115 RLU
same,Non-Canonical Peptide Non-Reactivity,Donor 4 COP T-Cell Lines; 205-1B4,GAT 631
same,Non-Canonical Peptide Non-Reactivity,Donor 4 COP T-Cell Lines; 205-1C4,GAT 631
same,Non-Canonical Peptide Non-Reactivity,Donor 4 COP T-Cell Lines; 205-1F4,GAT 631
same,Non-Canonical Peptide Non-Reactivity,Donor 4 COP T-Cell Lines; 205-1H3,GAT 631
same,Non-Canonical Peptide Non-Reactivity,Donor 4 COP T-Cell Lines; 205-1H5,GAT 631
same,reactivity to non-canonical GA peptides,"Donor 4 COP T-Cell Lines; 205-1H7, after seven stimulations, 0, 1, 10, 30 μg/mL",not
same,Non-Canonical Peptide Non-Reactivity,Donor 4 COP T-Cell Lines; 205-1H7,GAT 631
same,Non-Canonical Peptide Non-Reactivity,Donor 4 COP T-Cell Lines; 205-1H11,GAT 631
same,Nonreactive T-Cell Line,"Donor 4 COP T-Cell Lines; Donor 4 COP lines, stimulation with the non-canonical GA peptide",205-1C4 (Donor 4) and 205-1F4 (Donor 4) and 205-1H3 (Donor 4) and 205-1H5 (Donor 4) and 205-1H7 (Donor 4) and 205-1H11 (Donor 4)
same,"Reactivity (proliferation), Mean","Donor 4 COP T-Cell Lines; T-cell line 205-1B4, 1 μg/mL antigen, No Antigen 830",843 RLU
same,"Reactivity (proliferation), Mean","Donor 4 COP T-Cell Lines; T-cell line 205-1B4, 3 μg/mL antigen, No Antigen 830",890 RLU
same,"Reactivity (proliferation), Mean","Donor 4 COP T-Cell Lines; T-cell line 205-1B4, 10 μg/mL antigen, No Antigen 830",845 RLU
same,"Reactivity (proliferation), Mean","Donor 4 COP T-Cell Lines; T-cell line 205-1B4, 30 μg/mL antigen, No Antigen 830",766 RLU
same,"Reactivity (proliferation), Mean","Donor 4 COP T-Cell Lines; T-cell line 205-1C4, 1 μg/mL antigen, No Antigen 4464",4856 RLU
same,"Reactivity (proliferation), Mean","Donor 4 COP T-Cell Lines; T-cell line 205-1C4, 3 μg/mL antigen, No Antigen 4464",5584 RLU
same,"Reactivity (proliferation), Mean","Donor 4 COP T-Cell Lines; T-cell line 205-1C4, 10 μg/mL antigen, No Antigen 4464",5666 RLU
same,"Reactivity (proliferation), Mean","Donor 4 COP T-Cell Lines; T-cell line 205-1C4, 30 μg/mL antigen, No Antigen 4464",5137 RLU
same,"Proliferation (luminescent ATP assay), Mean",Donor 4 COP T-Cell Lines; 1 μg/mL antigen,2424
same,"Proliferation (luminescent ATP assay), Mean",Donor 4 COP T-Cell Lines; 3 μg/mL antigen,2439
same,"Proliferation (luminescent ATP assay), Mean",Donor 4 COP T-Cell Lines; 10 μg/mL antigen,3035
same,"Reactivity (proliferation), Mean","Donor 4 COP T-Cell Lines; T-cell line 205-1H5, 1 μg/mL antigen, No Antigen 749",648 RLU
same,"Reactivity (proliferation), Mean","Donor 4 COP T-Cell Lines; T-cell line 205-1H5, 3 μg/mL antigen, No Antigen 749",696 RLU
same,"Reactivity (proliferation), Mean","Donor 4 COP T-Cell Lines; T-cell line 205-1H5, 10 μg/mL antigen, No Antigen 749",698 RLU
same,"Reactivity (proliferation), Mean","Donor 4 COP T-Cell Lines; T-cell line 205-1H5, 30 μg/mL antigen, No Antigen 749",669 RLU

# From patent US9995734B2, “Human T cell line assay for evaluating the immunologic identity of glatiramer acetate preparations” (Mylan Inc., priority 2013, dated 2018)
